# Data: patent publication US20070093520A1, “Method of treatment of diarrhea-predominant irritable bowel syndrome in a subject” (priority 2005, published 2007)
# System: diarrhea-predominant IBS subjects
# Experiment: 3007 Study: open-label 52-week safety study, adverse events and withdrawals
# Settings: Overall
smiles,measurement,setting,value
"Cc1nccn1C[C@H]1CCc2c(c3cccc4c3n2CCC4)C1=O [cilansetron, (R)-(−)-4,5,6,8,9,10-hexahydro-10-[(2-methyl-1H-imidazol-1-yl)methyl]-11H-pyrido-[3,2,1-jk]-carbazol-11-one]",TEAE: Sexual Desire Disorders,,1 (<1%) n (%)
same,TEAE: Sick Sinus Syndrome,,1 (<1%) n (%)
same,TEAE: Sinus Arrhythmia,,1 (<1%) n (%)
same,TEAE: Sinus Congestion,,8 (1%) n (%)
same,TEAE: Sinus Headache,,3 (<1%) n (%)
same,TEAE: Sinusitis Acute NOS,,1 (<1%) n (%)
same,TEAE: Sinusitis NOS,,37 (7%) n (%)
same,TEAE: Site Specific Injuries NEC,,6 (1%) n (%)
same,TEAE: Skeletal and Cardiac Muscle Analyses,,27 (5%) n (%)
same,TEAE: Skin Disorder NOS,,1 (<1%) n (%)
same,TEAE: Skin Fungal Infection NOS,,1 (<1%) n (%)
same,TEAE: Skin Infection NOS,,1 (<1%) n (%)
same,TEAE: Skin Injuries and Mechanical Dermatoses,,3 (<1%) n (%)
same,TEAE: Skin Lesion NOS,,3 (<1%) n (%)
same,TEAE: Skin Neoplasms Benign,,1 (<1%) n (%)
same,TEAE: Skin Neoplasms Malignant and Unspecified (Excl Melanoma),,6 (1%) n (%)
same,TEAE: Skin Structures and Soft Tissue Infections,,3 (<1%) n (%)
same,TEAE: Skin Ulcer,,1 (<1%) n (%)
same,TEAE: Skin and Subcutaneous Tissue Disorders,,39 (7%) n (%)
same,TEAE: Skin and Subcutaneous Tissue Ulcerations,,1 (<1%) n (%)
same,TEAE: Sleep Apnoea Syndrome,,2 (<1%) n (%)
same,TEAE: Sleep Apnoeas,,2 (<1%) n (%)
same,TEAE: Social Circumstances,,1 (<1%) n (%)
same,TEAE: Soft Tissue Disorders NEC,,2 (<1%) n (%)
same,TEAE: Soft Tissue Neoplasms Benign NEC,,3 (<1%) n (%)
same,TEAE: Somnolence,,2 (<1%) n (%)
same,TEAE: Speech and Language Abnormalities,,1 (<1%) n (%)
same,TEAE: Spinal Cord and Nerve Root Disorders NEC,,1 (<1%) n (%)
same,TEAE: Spondylitic Myelopathy,,1 (<1%) n (%)
same,TEAE: Spondyloarthropathies,,1 (<1%) n (%)
same,TEAE: Spondylosis,,1 (<1%) n (%)
same,TEAE: Staphylococcal Infection NOS,,1 (<1%) n (%)
same,TEAE: Staphylococcal Infections,,1 (<1%) n (%)
same,TEAE: Status Epilepticus,,1 (<1%) n (%)
same,TEAE: Stomach Discomfort,,1 (<1%) n (%)
same,TEAE: Strabismus,,1 (<1%) n (%)
same,TEAE: Streptococcal Infection NOS,,1 (<1%) n (%)
same,TEAE: Streptococcal Infections,,8 (1%) n (%)
same,TEAE: Stress Fracture,,1 (<1%) n (%)
same,TEAE: Stress Incontinence,,1 (<1%) n (%)
same,TEAE: Stress Symptoms,,1 (<1%) n (%)
same,TEAE: Structural and Other Bile Duct Disorders,,1 (<1%) n (%)
same,TEAE: Sugar Intolerance (Excl Glucose Intolerance),,1 (<1%) n (%)
same,TEAE: Suicidal Ideation,,1 (<1%) n (%)
same,TEAE: Suicidal and Self-Injurious Behaviour,,1 (<1%) n (%)
same,TEAE: Supraventricular Arrhythmias,,4 (<1%) n (%)
same,TEAE: Supraventricular Tachycardia,,1 (<1%) n (%)
same,TEAE: Surgical and Medical Procedures,,2 (<1%) n (%)
same,TEAE: Sweating Increased,,2 (<1%) n (%)
same,TEAE: Swelling Face,,1 (<1%) n (%)
same,TEAE: Tachycardia NOS,,1 (<1%) n (%)
same,TEAE: Temporomandibular Joint Disorder NOS,,1 (<1%) n (%)
same,TEAE: Tenderness NOS,,1 (<1%) n (%)
same,TEAE: Tendon Disorders,,3 (<1%) n (%)
same,TEAE: Tendonitis,,2 (<1%) n (%)
same,TEAE: Tension Headaches,,1 (<1%) n (%)
same,TEAE: Thoracic Cage Fractures and Dislocations,,1 (<1%) n (%)
same,TEAE: Thrombocytopenia,,1 (<1%) n (%)
same,TEAE: Thrombocytopenias,,1 (<1%) n (%)
same,TEAE: Thrombophlebitis Superficial,,1 (<1%) n (%)
same,TEAE: Thyroid Disorders NEC,,1 (<1%) n (%)
same,TEAE: Thyroid Hypofunction Disorders,,2 (<1%) n (%)
same,TEAE: Thyroid Neoplasms,,1 (<1%) n (%)
same,TEAE: Thyroid Nodule,,1 (<1%) n (%)
same,TEAE: Tinea Cruris,,1 (<1%) n (%)
same,TEAE: Tinea Infections,,2 (<1%) n (%)
same,TEAE: Tinea Pedis,,1 (<1%) n (%)
same,TEAE: Tinnitus,,1 (<1%) n (%)
same,TEAE: Tissue Enzyme Analyses NEC,,3 (<1%) n (%)
same,TEAE: Tongue Coated,,1 (<1%) n (%)
same,TEAE: Tongue Signs and Symptoms,,1 (<1%) n (%)
same,TEAE: Tooth Abscess,,7 (1%) n (%)
same,TEAE: Tooth Disorder NOS,,1 (<1%) n (%)
same,TEAE: Tooth Impacted,,1 (<1%) n (%)
same,TEAE: Tooth Infection,,2 (<1%) n (%)
same,TEAE: Toothache,,3 (<1%) n (%)
same,TEAE: Total Fluid Volume Decreased,,2 (<1%) n (%)
same,TEAE: Total Number of Subjects with at Least One TEAE,,437 (82%) n (%)
same,TEAE: Transient Global Amnesia,,1 (<1%) n (%)
same,TEAE: Tremor,,2 (<1%) n (%)
same,TEAE: Tremor (Excl Congenital),,2 (<1%) n (%)
same,TEAE: Trigger Finger,,1 (<1%) n (%)
same,TEAE: Triglyceride Analyses,,10 (2%) n (%)
same,TEAE: Tympanic Membrane Disorder NOS,,1 (<1%) n (%)
same,TEAE: Tympanic Membrane Disorders (Excl Infections),,1 (<1%) n (%)
same,TEAE: Umbilical Hernia NOS,,1 (<1%) n (%)
same,TEAE: Umbilical Hernias,,1 (<1%) n (%)
same,TEAE: Upper Limb Fractures and Dislocations,,1 (<1%) n (%)
same,TEAE: Upper Respiratory Tract Infection NOS,,26 (5%) n (%)
same,TEAE: Upper Respiratory Tract Infections - Pathogen Class Unspecified,,61 (11%) n (%)
same,TEAE: Upper Respiratory Tract Signs and Symptoms,,7 (1%) n (%)
same,TEAE: Urinalysis NEC,,16 (3%) n (%)
same,TEAE: Urinary Abnormalities,,6 (1%) n (%)
same,TEAE: Urinary Frequency,,3 (<1%) n (%)
same,TEAE: Urinary Incontinence,,1 (<1%) n (%)
same,TEAE: Urinary Retention,,1 (<1%) n (%)
same,TEAE: Urinary Tract Infection NOS,,26 (5%) n (%)
same,TEAE: Urinary Tract Infections,,29 (5%) n (%)
same,TEAE: Urinary Tract Lithiasis (Excl Renal),,1 (<1%) n (%)
same,TEAE: Urinary Tract Signs and Symptoms NEC,,1 (<1%) n (%)
same,TEAE: Urine Abnormal NOS,,1 (<1%) n (%)
same,TEAE: Urine Analysis Abnormal NOS,,1 (<1%) n (%)
same,TEAE: Urine Bilirubin Increased,,1 (<1%) n (%)
same,TEAE: Urine Ketone Body Present,,5 (<1%) n (%)
same,TEAE: Urine Leukocyte Esterase Positive,,5 (<1%) n (%)
same,TEAE: Urobilin Urine Present,,1 (<1%) n (%)
same,TEAE: Urticaria NOS,,3 (<1%) n (%)
same,TEAE: Urticarias,,3 (<1%) n (%)
same,TEAE: Uterine Disorders NEC*,,2 (<1%) n (%)
same,TEAE: Uterine Fibroids*,,1 (<1%) n (%)
same,TEAE: Uterine Neoplasms Benign*,,1 (<1%) n (%)
same,TEAE: Uterine Neoplasms*,,2 (<1%) n (%)
same,TEAE: Uterine Polyp NOS*,,2 (<1%) n (%)
same,TEAE: Vaginal Cyst*,,1 (<1%) n (%)
same,TEAE: Vaginal Lesion*,,1 (<1%) n (%)
same,TEAE: Varicose Vein Ruptured,,2 (<1%) n (%)
same,TEAE: Varicose Veins Non-Site Specific,,2 (<1%) n (%)
same,TEAE: Vascular Auscultatory Investigations,,2 (<1%) n (%)
same,TEAE: Vascular Disorders,,21 (4%) n (%)
same,TEAE: Vascular Hypertensive Disorders NEC,,15 (3%) n (%)
same,TEAE: Vascular Hypotensive Disorders,,1 (<1%) n (%)
same,TEAE: Vascular Tests NEC (Incl Blood Pressure),,5 (<1%) n (%)
same,TEAE: Vasovagal Attack,,1 (<1%) n (%)
same,TEAE: Ventricular Arrhythmias and Cardiac Arrest,,2 (<1%) n (%)
same,TEAE: Ventricular Extrasystoles,,1 (<1%) n (%)
same,TEAE: Vertigo,,2 (<1%) n (%)
same,TEAE: Viral Infection NOS,,4 (<1%) n (%)
same,TEAE: Viral Infections NEC,,15 (3%) n (%)
same,TEAE: Visual Acuity Reduced,,1 (<1%) n (%)
same,TEAE: Vitreous Disorder NOS,,1 (<1%) n (%)
same,TEAE: Vomiting NOS,,18 (3%) n (%)
same,TEAE: Vulvovaginal Cysts and Neoplasms*,,1 (<1%) n (%)
same,TEAE: Vulvovaginal Dryness*,,2 (<1%) n (%)
same,TEAE: Vulvovaginal Signs and Symptoms*,,3 (<1%) n (%)
same,TEAE: Weight Decreased,,2 (<1%) n (%)
same,TEAE: Weight Increased,,6 (1%) n (%)
same,TEAE: Wheezing,,1 (<1%) n (%)
same,TEAE: White Blood Cell Analyses,,5 (<1%) n (%)
same,TEAE: White Blood Cell Count Decreased,,1 (<1%) n (%)
same,TEAE: White Blood Cells Urine Positive,,1 (<1%) n (%)
same,TEAE leading to permanent discontinuation: Abdominal Distension,N=536,4 (<1%) n (%)
same,TEAE leading to permanent discontinuation: Abdominal Pain Aggravated,N=536,1 (<1%) n (%)
same,TEAE leading to permanent discontinuation: Abdominal Pain Lower,N=536,2 (<1%) n (%)
same,TEAE leading to permanent discontinuation: Abdominal Pain NOS,N=536,11 (2%) n (%)
same,TEAE leading to permanent discontinuation: Abdominal Pain Upper,N=536,4 (<1%) n (%)
same,TEAE leading to permanent discontinuation: Alanine Aminotransferase Increased,N=536,1 (<1%) n (%)
same,TEAE leading to permanent discontinuation: Angina Pectoris,N=536,1 (<1%) n (%)
same,TEAE leading to permanent discontinuation: Appendicitis,N=536,1 (<1%) n (%)
same,TEAE leading to permanent discontinuation: Asthma Aggravated,N=536,1 (<1%) n (%)
same,TEAE leading to permanent discontinuation: Asthma NOS,N=536,1 (<1%) n (%)
same,TEAE leading to permanent discontinuation: Back Pain,N=536,4 (<1%) n (%)
same,TEAE leading to permanent discontinuation: Bladder Prolapse,N=536,1 (<1%) n (%)
same,TEAE leading to permanent discontinuation: Blood Bilirubin Increased,N=536,1 (<1%) n (%)
same,TEAE leading to permanent discontinuation: Blood Pressure Increased,N=536,1 (<1%) n (%)
same,TEAE leading to permanent discontinuation: Blood Urine Present,N=536,1 (<1%) n (%)
same,TEAE leading to permanent discontinuation: Bone Neoplasm Malignant,N=536,1 (<1%) n (%)
same,TEAE leading to permanent discontinuation: Cardiac Disorders,N=536,1 (<1%) n (%)
same,TEAE leading to permanent discontinuation: Chest Discomfort,N=536,1 (<1%) n (%)
same,TEAE leading to permanent discontinuation: Chest Pain,N=536,1 (<1%) n (%)
same,TEAE leading to permanent discontinuation: Chest Wall Pain,N=536,1 (<1%) n (%)
same,TEAE leading to permanent discontinuation: Colitis Ischaemic,N=536,1 (<1%) n (%)
same,TEAE leading to permanent discontinuation: Constipation,N=536,28 (5%) n (%)
same,TEAE leading to permanent discontinuation: Cough,N=536,1 (<1%) n (%)
same,TEAE leading to permanent discontinuation: Dehydration,N=536,1 (<1%) n (%)
same,TEAE leading to permanent discontinuation: Depression,N=536,1 (<1%) n (%)
same,TEAE leading to permanent discontinuation: Diarrhoea Aggravated,N=536,2 (<1%) n (%)
same,TEAE leading to permanent discontinuation: Diarrhoea Haemorrhagic,N=536,1 (<1%) n (%)
same,TEAE leading to permanent discontinuation: Diarrhoea NOS,N=536,6 (1%) n (%)
same,TEAE leading to permanent discontinuation: Dizziness,N=536,2 (<1%) n (%)
